Assay results reported in patent US20240099951A1, “HAIR GROWTH STIMULANT” (ADJUVANT HOLDINGS CO., LTD., priority 2020, published 2024).

Key:
[1] = tested on: skin samples derived from C57BL/6N mouse dorsal body hair skin grafted onto Balb/c nu/nu mice; assay: Evaluation of hair growth activity: drug applied on skin samples transplanted in mice; type: in vivo
Method: C57BL/6N mice (male) and Balb/c nu/nu mice (female) were purchased from Japan SLC, Inc. (Japan) and bred, and were thereafter made available for the following testing. Note that the testing and breeding of animals complied with pertinent laws, regulations, ordinances, and guidelines, and was performed with the approval of the Experimental Ethics Review Board of the Institute of Physical and Chemical Research. The following reagents were respectively prepared. • Comparative Example 1: 60% aqueous ethanol solution • Comparative Example 2: 5% minoxidil solution • Comparative Example 3: 3% minoxidil solution • Comparative Example 4: 1% minoxidil solution • Working Example 1: 3% phytosphingosine solution • Working Example 2: 1% phytosphingosine solution To collect dorsal body hair skin in the form of anagen stage VI skin 12 to 14 days following depilation, C57BL/6N mice of age 7 to 8 weeks were depilated at locations where dorsal body hair skin was intended to be collected, and were bred for 12 to 14 days. The depilated C57BL/6N mice were thereafter euthanized by cervical dislocation, following which a suitable amount of dorsal body hair skin was collected from the locations at which dorsal body hair skin was intended to be collected. The collected skin was immersed in DMEM culture medium (hereinafter “DMEM 10”) which contained 10 mM HEPES, 10% fetal bovine serum, and 1% penicillin/streptomycin solution. The collected dorsal body hair skin was grasped with bent-nose curved tweezers and was treated by immersion for 10 seconds in a sterilizing solution. Sterilization treatment was performed by carrying out treatment with 7% povidone iodine solution two times, treatment with PBS (−) three times, and treatment with DMEM 10 two times, in this order, with fresh solutions respectively being used each time. Following sterilization treatment, these were immersed in clean DMEM 10. Following sterilization treatment, the dorsal body hair skin was cut into pieces and formed into blocks. The transparent connective tissue which adhered to the cutaneous muscle layer of the skin was excised therefrom using curved scissors, and hair groups were cut into rectangular strips in parallel fashion with respect to the direction of the wave of the hair. At this time, these were cut into blocks such that there were 6 rows of hair follicles along the long axis, adjustment having been carried out so that there were 5 rows of hair follicles along the short axis. The skin samples derived from dorsal body hair skin that were prepared in accordance with the foregoing were grafted onto Balb/c nu/nu mice of age 4 to 6 weeks. More specifically, mice were anesthetized in the usual way using isoflurane gas. The dorsal area of the mice was then disinfected using 7% povidone iodine solution, following which the mice were made to assume a naturally recumbent posture. In addition, a Mani ophthalmic knife (Mani, Inc.; Japan) was used to pierce the skin at the dorsal area of the mice, the grafts which were formed extending from the epidermal layer of the skin to the subdermal layer. The skin samples derived from dorsal body hair skin were inserted into the grafts formed thereat in such fashion as to cause the hair groups to be directed toward the body surface side of the grafts. Skin sample transplanted depth was adjusted so as to cause the top portion of the hair group to be in a state such that it was exposed at the top portion of the graft. To protect the grafts, Nurseban (registered trademark) (Sunplanet Co., Ltd.; Japan) and surgical tape (3M Japan Limited; Japan) were then used as protective tape to cover the grafts at which the skin samples derived from dorsal body hair skin had been transplanted. The protective tape was removed 5 to 7 days following transplantation, and survival of the transplanted skin samples derived from dorsal body hair skin was determined by visual inspection or digital microscopy (Keyence Corporation; Japan), after which follow-up observation was carried out. […]

[2] = tested on: hair groups derived from C57BL/6N dorsal body hair skin transplanted in Balb/c nu/nu mice; assay: Evaluation of hair-diameter-increasing activity (hair shafts grown after third cycle of Exemplary Test 1); type: in vivo
Method: Dorsal body hair skin was collected from C57BL/6N mice (SLC) of age 7 to 8 weeks in accordance with a procedure similar to that at Exemplary Test 1, above, the drug being applied after the hair groups derived from the dorsal body hair skin that had been fabricated were transplanted in Balb/c nu/nu mice (SLC) of age 4 to 6 weeks. Testing and breeding of animals complied with pertinent laws, regulations, ordinances, and guidelines, and was performed with the approval of the Experimental Ethics Review Board of the Institute of Physical and Chemical Research. The following three solutions were used during testing. • 60% aqueous ethanol solution • 5% minoxidil solution • 1% phytosphingosine solution Measurement of increase in hair diameter was carried out using hair shafts which had grown following completion of the third cycle at Exemplary Test 1. Of the hair shafts that were collected, two zigzag hairs were used. Three locations were selected in regions where diameter was large in the central portions thereof using a square 100 μm on a side. Measurement of selected regions was carried out at five locations. Hairs as they existed following application of the drug were used for measurement of hair shaft diameter.

[3] = 1% minoxidil solution (Comparative Example 4), second hair cycle
[4] = 1% minoxidil solution (Comparative Example 4), third hair cycle
[5] = 1% minoxidil solution, second hair cycle vs first hair cycle
[6] = 1% minoxidil solution, third hair cycle vs first hair cycle
[7] = 3% minoxidil solution (Comparative Example 3), second hair cycle
[8] = 3% minoxidil solution (Comparative Example 3), third hair cycle
[9] = 3% minoxidil solution, second hair cycle vs first hair cycle
[10] = 3% minoxidil solution, third hair cycle vs first hair cycle
[11] = 5% minoxidil solution (Comparative Example 2), second hair cycle
[12] = 5% minoxidil solution (Comparative Example 2), third hair cycle
[13] = 5% minoxidil solution, second hair cycle vs first hair cycle
[14] = 5% minoxidil solution, third hair cycle vs first hair cycle

Nc1cc(N2CCCCC2)nc(N)[n+]1[O-] [minoxidil]
Hair shaft elongation rate [1, 3]: 0.54 ± 0.08 mm/day
Maximum hair shaft length [1, 3]: 5.2 ± 0.3 mm
Hair shaft elongation rate [1, 4]: 0.44 ± 0.02 mm/day
Maximum hair shaft length [1, 4]: 4.9 ± 0.4 mm
Hair shaft elongation rate, percent change relative to reference data [1, 5]: 123.85%
Maximum hair shaft length, percent change relative to reference data [1, 5]: 118.07%
Hair shaft elongation rate, percent change relative to reference data [1, 6]: 100.24%
Maximum hair shaft length, percent change relative to reference data [1, 6]: 111.10%
Hair shaft elongation rate [1, 7]: 0.48 ± 0.07 mm/day
Maximum hair shaft length [1, 7]: 5.2 ± 0.2 mm
Hair shaft elongation rate [1, 8]: 0.53 ± 0.03 mm/day
Maximum hair shaft length [1, 8]: 5.3 ± 0.3 mm
Hair shaft elongation rate, percent change relative to reference data [1, 9]: 126.50%
Maximum hair shaft length, percent change relative to reference data [1, 9]: 116.80%
Hair shaft elongation rate, percent change relative to reference data [1, 10]: 139.36%
Maximum hair shaft length, percent change relative to reference data [1, 10]: 120.09%
Hair shaft elongation rate [1, 11]: 0.51 ± 0.03 mm/day
Maximum hair shaft length [1, 11]: 6.0 ± 0.1 mm
Hair shaft elongation rate [1, 12]: 0.55 ± 0.07 mm/day
Maximum hair shaft length [1, 12]: 5.8 ± 0.1 mm
Hair shaft elongation rate, percent change relative to reference data [1, 13]: 116.25%
Maximum hair shaft length, percent change relative to reference data [1, 13]: 115.74%
Hair shaft elongation rate, percent change relative to reference data [1, 14]: 126.11%
Maximum hair shaft length, percent change relative to reference data [1, 14]: 112.62%
Hair shaft diameter ([2]; 5% minoxidil solution applied, hair shafts after third cycle): 18.28 μm
hair shaft diameter as percent of control ([2]; 5% minoxidil solution vs 60% aqueous ethanol solution): 115%
